Experimental data from US7632933B2, “Corticotropin releasing factor 2 receptor agonists” (priority 2002, dated 2009).
Read-outs that look alike come from different tables or passages of the source. Ends that are not written are not given here. Peptide text beside a SMILES is read from it.

Key:
[1] = biological target: T1, CRF2R (Homo sapiens, UniProt Q13324); assay: CRF2R agonist activity (EC50 and Emax), called comparative CRF binding; assay type: cell-based
T1 sequence (Q13324 1-411): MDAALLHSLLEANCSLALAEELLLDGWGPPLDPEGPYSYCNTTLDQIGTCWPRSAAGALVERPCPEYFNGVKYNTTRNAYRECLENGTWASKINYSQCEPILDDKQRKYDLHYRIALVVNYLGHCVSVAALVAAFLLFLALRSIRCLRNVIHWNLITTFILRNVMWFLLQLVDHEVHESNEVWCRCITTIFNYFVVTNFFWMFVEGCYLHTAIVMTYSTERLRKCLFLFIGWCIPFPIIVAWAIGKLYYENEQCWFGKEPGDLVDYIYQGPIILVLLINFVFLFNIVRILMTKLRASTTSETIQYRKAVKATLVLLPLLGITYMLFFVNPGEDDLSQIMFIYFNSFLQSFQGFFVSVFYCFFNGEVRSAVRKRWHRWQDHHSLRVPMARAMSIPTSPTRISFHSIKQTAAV
Method in brief: (§1)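 cAMP read-out: lysates of CRF1R- or CRF2R-expressing cells assayed after peptide exposure, compared against vehicle-treated cells; signal from any non-target CRFR subtracted as background.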

[2] = biological target: T2, CRF1R (Homo sapiens, UniProt P34998); assay: CRF1R agonist activity (EC50 and Emax), called comparative CRF binding; assay type: cell-based
T2 sequence (P34998 24-415): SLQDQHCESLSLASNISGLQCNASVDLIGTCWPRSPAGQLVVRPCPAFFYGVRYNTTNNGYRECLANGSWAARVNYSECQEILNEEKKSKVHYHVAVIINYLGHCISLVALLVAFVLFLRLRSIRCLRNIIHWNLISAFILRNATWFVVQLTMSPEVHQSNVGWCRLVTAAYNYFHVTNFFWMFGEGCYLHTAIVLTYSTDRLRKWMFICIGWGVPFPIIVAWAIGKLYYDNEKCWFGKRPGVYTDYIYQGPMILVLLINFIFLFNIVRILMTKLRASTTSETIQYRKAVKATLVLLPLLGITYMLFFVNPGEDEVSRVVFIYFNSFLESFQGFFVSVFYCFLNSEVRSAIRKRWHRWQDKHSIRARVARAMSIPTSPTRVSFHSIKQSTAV
Method in brief: as §1

Compound	EC50 ([1]; CRF2R, read-out: CRF2R EC50) [µM]	EC50 ([2]; CRF1R, read-out: CRF1R EC50) [µM]	also measured
CC[C@H](C)[C@H](N)C(=O)N[C@H](C(=O)N[C@@H](CC(C)C)C(=O)N[C@@H](CO)C(=O)N[C@@H](CC(C)C)C(=O)N[C@@H](CC(=O)O)C(=O)N[C@H](C(=O)N1CCC[C@H]1C(=O)N[C@H](C(=O)NCC(=O)N[C@@H](CC(C)C)C(=O)N[C@@H](CC(C)C)C(=O)N[C@@H](CCC(N)=O)C(=O)N[C@@H](CCC(=O)O)C(=O)N[C@H](C(=O)N[C@@H](CC(C)C)C(=O)N[C@@H](CCC(=O)O)C(=O)N[C@@H](CCSC)C(=O)N[C@@H](C)C(=O)N[C@@H](CCCNC(=N)N)C(=O)N[C@@H](C)C(=O)N[C@@H](CCC(=O)O)C(=O)N[C@@H](CCC(N)=O)C(=O)N[C@@H](CC(C)C)C(=O)N[C@@H](C)C(=O)N[C@@H](CCC(N)=O)C(=O)N[C@@H](CCC(N)=O)C(=O)N[C@@H](C)C(=O)N[C@@H](Cc1c[nH]cn1)C(=O)N[C@@H](CO)C(=O)N[C@@H](CC(N)=O)C(=O)N[C@@H](CCCNC(=N)N)C(=O)N[C@@H](CCCCN)C(=O)N[C@@H](CC(C)C)C(=O)N[C@@H](CCSC)C(=O)N[C@@H](CCC(=O)O)C(=O)N[C@H](C(=O)N[C@H](C(N)=O)[C@@H](C)CC)[C@@H](C)CC)C(C)C)[C@@H](C)CC)C(C)C)C(C)C [compound 165] (H-IVLSLDVPIGLLQEVLEMARAEQLAQQAHSNRKLMEII-NH2)	> 0.1	> 0.1	
CC[C@H](C)[C@H](N)C(=O)N[C@H](C(=O)N[C@@H](CC(C)C)C(=O)N[C@@H](CO)C(=O)N[C@@H](CC(C)C)C(=O)N[C@@H](CC(=O)O)C(=O)N[C@H](C(=O)N1CCC[C@H]1C(=O)N[C@H](C(=O)NCC(=O)N[C@@H](CC(C)C)C(=O)N[C@@H](CC(C)C)C(=O)N[C@@H](CCC(N)=O)C(=O)N[C@H](C(=O)N[C@@H](CC(C)C)C(=O)N[C@@H](CC(C)C)C(=O)N[C@@H](CCC(=O)O)C(=O)N[C@@H](CCC(N)=O)C(=O)N[C@H](C(=O)N[C@@H](CCCCN)C(=O)N[C@@H](C)C(=O)N[C@@H](CC(N)=O)C(=O)N[C@@H](C)C(=O)N[C@@H](C)C(=O)N[C@@H](CCCNC(=N)N)C(=O)N[C@@H](CCC(=O)O)C(=O)N[C@@H](CCC(N)=O)C(=O)N[C@@H](C)C(=O)N[C@H](C(=O)N[C@H](C(=O)N[C@H](C(=O)N[C@@H](C)C(=O)N[C@@H](CCCNC(=N)N)C(=O)N[C@H](C(=O)N[C@@H](CC(C)C)C(=O)N[C@@H](C)C(=O)N[C@@H](CCCNC(=N)N)C(=O)N[C@H](C(N)=O)C(C)C)[C@@H](C)CC)C(C)C)[C@@H](C)O)[C@@H](C)O)[C@@H](C)O)[C@@H](C)CC)[C@@H](C)CC)C(C)C)C(C)C [compound 116] (H-IVLSLDVPIGLLQILLEQTKANAAREQATTVARILARV-NH2)	≥ 0.1	≥ 0.1	
SQEPPISLDLTFGLLREVLEMTKADQLAQQAHSNRKLLDIA-NH2 [compound 88]	≥ 0.1	≥ 0.1	
CC[C@H](C)[C@H](NC(=O)[C@H](CC(=O)O)NC(=O)[C@H](CC(C)C)NC(=O)[C@H](CC(C)C)NC(=O)[C@H](CCCCN)NC(=O)[C@H](CCCNC(=N)N)NC(=O)[C@H](CC(N)=O)NC(=O)[C@H](CO)NC(=O)[C@H](Cc1c[nH]cn1)NC(=O)[C@H](C)NC(=O)[C@H](CCC(N)=O)NC(=O)[C@H](CCC(N)=O)NC(=O)[C@H](C)NC(=O)[C@H](CC(C)C)NC(=O)[C@H](CCC(N)=O)NC(=O)[C@H](CC(=O)O)NC(=O)[C@H](C)NC(=O)[C@H](CCCCN)NC(=O)[C@@H](NC(=O)[C@H](CCSC)NC(=O)[C@H](CCC(=O)O)NC(=O)[C@H](CC(C)C)NC(=O)[C@@H](NC(=O)[C@H](CCC(=O)O)NC(=O)[C@H](CCCNC(=N)N)NC(=O)[C@H](CC(C)C)NC(=O)[C@H](CC(C)C)NC(=O)[C@H](Cc1c[nH]cn1)NC(=O)[C@H](Cc1ccccc1)NC(=O)[C@@H]1CCCN1C(=O)[C@H](CC(C)C)NC(=O)[C@H](CC(=O)O)NC(=O)[C@H](CC(C)C)NC(=O)[C@H](CO)NC(=O)[C@@H](NC(=O)[C@@H]1CCCN1C(=O)[C@@H]1CCCN1C(=O)[C@H](CCC(=O)O)NC(=O)[C@H](CCC(N)=O)NC(=O)[C@@H](N)CO)[C@@H](C)CC)C(C)C)[C@@H](C)O)C(=O)N[C@@H](C)C(N)=O [compound 104]	≥ 0.1	≥ 0.1	
NDDPPISIDLPFQLLRNMIEMARIENEREQAGLNAKYLAEV-NH2 [compound 258]	≥ 0.1	≥ 1	
SQEPPISLDLPFELLREVLEMTKADQLAQQAHSNRKLLDIA-NH2 [compound 97]	≥ 0.1	≥ 0.1	
CC[C@H](C)[C@H](N)C(=O)N[C@H](C(=O)N[C@@H](CC(C)C)C(=O)N[C@@H](CO)C(=O)N[C@@H](CC(C)C)C(=O)N[C@@H](CC(=O)O)C(=O)N[C@H](C(=O)N1CCC[C@H]1C(=O)N[C@H](C(=O)NCC(=O)N[C@@H](CC(C)C)C(=O)N[C@@H](CC(C)C)C(=O)N[C@@H](CCC(N)=O)C(=O)N[C@H](C(=O)N[C@@H](CC(C)C)C(=O)N[C@@H](CC(C)C)C(=O)N[C@@H](CCC(=O)O)C(=O)N[C@@H](CCC(N)=O)C(=O)N[C@@H](C)C(=O)N[C@@H](CCCNC(=N)N)C(=O)N[C@@H](Cc1c[nH]cn1)C(=O)N[C@@H](C)C(=O)N[C@@H](Cc1c[nH]cn1)C(=O)N[C@@H](C)C(=O)N[C@@H](Cc1c[nH]cn1)C(=O)N[C@@H](C)C(=O)N[C@@H](Cc1c[nH]cn1)C(=O)N[C@@H](C)C(=O)N[C@@H](Cc1c[nH]cn1)C(=O)N[C@@H](C)C(=O)N[C@@H](CCC(N)=O)C(=O)N[C@@H](C)C(=O)N[C@@H](Cc1c[nH]cn1)C(=O)N[C@H](C(=O)N[C@@H](CC(C)C)C(=O)N[C@@H](C)C(=O)N[C@@H](Cc1c[nH]cn1)C(=O)N[C@H](C(N)=O)C(C)C)[C@@H](C)CC)[C@@H](C)CC)[C@@H](C)CC)C(C)C)C(C)C [compound 369] (H-IVLSLDVPIGLLQILLEQARHAHAHAHAHAQAHILAHV-NH2)	≥ 0.1	≥ 1	
CC[C@H](C)[C@H](N)C(=O)N[C@H](C(=O)N[C@@H](CC(C)C)C(=O)N[C@@H](CO)C(=O)N[C@@H](CC(C)C)C(=O)N[C@@H](CC(=O)O)C(=O)N[C@H](C(=O)N1CCC[C@H]1C(=O)N[C@H](C(=O)NCC(=O)N[C@@H](CC(C)C)C(=O)N[C@@H](CC(C)C)C(=O)N[C@@H](CCC(N)=O)C(=O)N[C@H](C(=O)N[C@@H](CC(C)C)C(=O)N[C@@H](CC(C)C)C(=O)N[C@@H](CCC(=O)O)C(=O)N[C@@H](CCC(N)=O)C(=O)N[C@H](C(=O)N[C@@H](CCCCN)C(=O)N[C@@H](C)C(=O)N[C@@H](CCCNC(=N)N)C(=O)N[C@@H](C)C(=O)N[C@@H](C)C(=O)N[C@@H](CCCNC(=N)N)C(=O)N[C@@H](CCC(=O)O)C(=O)N[C@@H](CCC(N)=O)C(=O)N[C@@H](C)C(=O)N[C@H](C(=O)N[C@H](C(=O)N[C@@H](CC(N)=O)C(=O)N[C@@H](C)C(=O)N[C@@H](CCCNC(=N)N)C(=O)N[C@H](C(=O)N[C@@H](CC(C)C)C(=O)N[C@@H](C)C(=O)N[C@@H](CCCNC(=N)N)C(=O)N[C@H](C(N)=O)C(C)C)[C@@H](C)CC)[C@@H](C)O)[C@@H](C)O)[C@@H](C)O)[C@@H](C)CC)[C@@H](C)CC)C(C)C)C(C)C [compound 129] (H-IVLSLDVPIGLLQILLEQTKARAAREQATTNARILARV-NH2)	0.00383		CRF2R (Emax %) ([1]; CRF2R, Emax): (92) %; CRF1R (Emax %) ([2]; CRF1R, Emax): (12) %
SEEPPISLDLTFHLLREVLEMARAEQLAQQAHTNARILARV-NH2 [compound 161]	> 0.1	> 0.1	
NDDPPISIDLPQYLLRNMIEMARIENEREQAGLNAKYLAEV-NH2 [compound 265]	≥ 0.1	≥ 1	
SQEPPISLDLPFGLLREVLEMTKADQLAQQAHSNRKLLDIA-NH2 [compound 103]	≥ 0.1	≥ 0.1	
CC[C@H](C)[C@H](NC(=O)[C@H](CCC(N)=O)NC(=O)[C@H](C)NC(=O)[C@H](CCSC)NC(=O)[C@H](CC(C)C)NC(=O)[C@H](Cc1c[nH]cn1)NC(=O)[C@H](C)NC(=O)[C@H](CC(N)=O)NC(=O)[C@H](C)NC(=O)[C@H](C)NC(=O)[C@H](C)NC(=O)[C@H](CCC(N)=O)NC(=O)[C@H](C)NC(=O)[C@H](CCCNC(=N)N)NC(=O)[C@H](CC(C)C)NC(=O)[C@H](CC(N)=O)NC(=O)[C@H](CCCCN)NC(=O)[C@H](C)NC(=O)[C@H](CCCCN)NC(=O)[C@H](C)NC(=O)[C@@H](NC(=O)[C@H](CC(N)=O)NC(=O)[C@H](Cc1ccccc1)NC(=O)[C@H](CC(C)C)NC(=O)[C@H](CC(C)C)NC(=O)[C@H](CC(N)=O)NC(=O)[C@H](CCSC)NC(=O)[C@@H](NC(=O)[C@H](CC(N)=O)NC(=O)[C@@H](NC(=O)[C@@H]1CCCN1C(=O)[C@@H](NC(=O)[C@H](CC(=O)O)NC(=O)[C@H](CC(C)C)NC(=O)[C@H](CO)NC(=O)[C@H](CC(C)C)NC(=O)[C@@H](NC(=O)[C@H](Cc1ccccc1)NC(=O)[C@H](CCCCN)NC(=O)[C@@H](N)[C@@H](C)O)[C@@H](C)O)C(C)C)[C@@H](C)O)[C@@H](C)CC)[C@@H](C)CC)C(N)=O [hUroIII, reference compound] (H-TKFTLSLDVPTNIMNLLFNIAKAKNLRAQAAANAHLMAQI-NH2)			EC50 ([1]; CRF2R EC50): > 0.1 µM; EC50 ([2]; CRF1R EC50): > 1 µM
SQEPPISLDLPLYLLREVLEMTKADQLAQQAHSNRKLLDIA-NH2 [compound 101]	≥ 0.1	≥ 0.1	
